Reference: patent US8741843B2, “Compositions and methods for inducing angiogenesis” (priority 2006, dated 2014)
Entries after “also recorded” stand apart in the source; their conditions may differ.

What was measured:
[1] = tested on: endothelial cells; assay: Hypoxia-induced apoptosis of endothelial cells (Annexin V FITC/PI FACS); format: cell-based, human; settings: for effect on hypoxia-induced apoptosis of endothelial cells / percent apoptosis (PI/Annexin V): 24 hours hypoxia; for effect on hypoxia-induced apoptosis of endothelial cells: peptides 10 ng/ml; for percent apoptosis (PI/Annexin V): FIGS. 24a-d, hypoxia alone 79.3%
Method: FIG. 17 is a histogram depicting the effect of ADOPep1 on hypoxia-induced apoptosis of endothelial cells. Endothelial cells were exposed for 24 hours hypoxia in the presence of endothelial cell growth medium supplemented with 5% fetal calf serum (FCS), followed by incubation under hypoxia conditions with ADOPep1 (10 ng/ml) or anti-GRP78 antibody (100 ng/ml). Cells (100,000/tube) were incubated with Annexin-V FITC/PI for endothelial cell apoptosis determination. […] Similarly, anti-GRP78 antibody induced a reduction in apoptosis up to 32%.
FIGS. 24a-d are FACS analyses depicting hypoxia induced apoptosis. Endothelial cells were incubated for 24 hours under hypoxia conditions in the absence (FIG. 24a) or presence of 10 ng/ml of ADOPepe1 (FIG. 24b), peptide of Motif A (FIG. 24c) or peptide of motif C (FIG. 24d) and the level of apoptosis was determined using FACS analysis and the PI (shown on the Y axis)/Annexin V (shown on the X axis) markers.
FIG. 25 is a bar graph depicting the inhibition of hypoxia induced apoptosis by ADOPep 1, Motif A and Motif B. Endothelial cells were incubated for 24 hours under hypoxia conditions in the absence or presence of 10 ng/ml of ADOPepe1, Motif A, Motif B or motif C and the level of apoptosis was determined using FACS analysis and quantified as the percent of Annexin V and PI positive cells. The results represent average±standard deviation of 4 independent experiments.
FIGS. 33a-f are representative FACS analyses depicting a specific inhibition of hypoxia-induced apoptosis of endothelial cells by ADOPep1. Endothelial cells in Petri dishes were incubated for 24 hours with 5% FCS in supplement-free endothelial cell growth medium under normoxia (FIGS. 33a and d), exposed to 24 hours hypoxia (Figures c and f) or incubated under normoxia with 100 micromolar per 100,000 cells CoCl2 (FIGS. 33b and e), in the absence (FIGS. 33a-c) or presence (FIGS. 33d-f) of 10 ng/ml Adopep1 peptide (for 24 hours). Cells were trypsinized and immediately re-suspended in PBS with 5% FCS and 0.1% Na-azide. Samples containing 100,000 cells were tested for apoptosis using the Annexin-FITC (X axis) and propidium iodide (Y axis) kit (Bender Medsystems, Vienna, Austria), according to manufacturer's instructions. Results were analyzed by FACScan (Beckton Dickinson).
EC were incubated for 24 hours with 5% FCS in EC growth media in Petri dishes plates followed by 24 hours incubation under hypoxia conditions with ADOPep1 (10 ng/ml), anti GRP78 antibody (Santa Cruz Biotechnology, Calif., USA) (1 microgram/ml) or recombinant VEGF (10 ng/ml). The Annexin V FITC/PI detects the phosphatidylserin on the apoptotic cells using flow cytometry. Human Annexin V-FITC kit (Bender Medsystems, Vienna, Austria) was used for the measurement of EC apoptosis percentage following manufacturer's instructions. Samples were analyzed using a fluorescence activated cell sorter (FACScan Beckton Dickinson, Calif., USA).

[2] = tested on: endothelial cells; assay: Tube formation of endothelial cells on Cultrex Basement Membrane Extract; format: cell-based, human; settings: 10 ng/ml, 18 hours, starvation and normoxic conditions
Method: FIG. 27 is a graph depicting induction of tube formation using AdoPep1 and Motif A (SEQ ID NO:7) but not the scrambled sROY peptide. Endothelial cells were incubated in media without supplements for 24 hours, and 50,000 cells were then transferred in 500 μl medium to 24-well plates precoated with 250 μl Cultrex Basement Membrane Extract (with reduced growth factors) (R&D Systems, Minneapolis, Minn., USA). AdoPep1, Motif A and scrambled sROY peptides were added at an optimal concentration of 10 ng/ml (based on preliminary findings), and the slides were examined by light microscopy after 18 hours incubation. The results represent average±SD of three experiments using 3 different cords. The length of the network of connected cells (tube formation) was measured in micrometers in 5 different areas of each well using Image-Pro Plus Image software (Media Cybernetics, Silver Spring, Md., USA).

Substance | effect on hypoxia-induced apoptosis of endothelial cells [1] | more efficient in decreasing apoptosis as compared to the anti-GRP78 antibody ([1]; FIG. 17, hypoxia) [%] | percent apoptosis of endothelial cells (Annexin-V/PI) ([1]; FIG. 17, hypoxia, ADOPep1 10 ng/ml, anti-GRP78 antibody 100 ng/ml) [%] | inhibition of hypoxia induced apoptosis ([1]; FIG. 34, 24 hours hypoxia, 10 ng/ml) | percent apoptosis (PI/Annexin V) ([1]; 10 ng/ml) [%] | tube formation (length of the network of connected cells) [2]
HWRRAHLLPRLP [ADOPep1, ADAM15 derived peptide, amino acids 286-297 of the metalloprotease domain] | prevented apoptosis to levels which are similar to those seen under normoxic conditions; also recorded: capable of inhibiting the hypoxia induced apoptosis; also recorded: remarkable decrease in the stained cells; also recorded: significant inhibition of hypoxia induced apoptosis; also recorded: a significant fraction of hypoxia-induced apoptosis was inhibited | 29 | 25 | approximately 40% | 28.6 | significantly increased the length of the network of connected cells
HWRRP [Motif A, 5 amino acid motif peptide] | capable of inhibiting the hypoxia induced apoptosis; also recorded: significant inhibition of hypoxia induced apoptosis | – | – | – | 35.8 | significantly increased the length of the network of connected cells
